According to publication PMC6943441, “The Meta-Position of Phe^4 in Leu-Enkephalin Regulates Potency, Selectivity, Functional Activity, and Signaling Bias at the Delta and Mu Opioid Receptors” (Molecules, 2019):
Read-outs that look alike come from different tables or passages of the source. Square brackets hold non-standard residues; d marks the D form. Peptide text beside a SMILES is read from it. 2Pal = N[C@@H](Cc1ccccn1)C(=O)O; 3Pal = N[C@@H](Cc1cccnc1)C(=O)O

Legend:
µOR [1] = biological target: T1, µOR (Homo sapiens, UniProt P35372); experiment: Bias factor calculation (operational model, cAMP vs β-arrestin 2); details: DAMGO as reference, >1 = more G protein-biased
T1 sequence (P35372 whole entry): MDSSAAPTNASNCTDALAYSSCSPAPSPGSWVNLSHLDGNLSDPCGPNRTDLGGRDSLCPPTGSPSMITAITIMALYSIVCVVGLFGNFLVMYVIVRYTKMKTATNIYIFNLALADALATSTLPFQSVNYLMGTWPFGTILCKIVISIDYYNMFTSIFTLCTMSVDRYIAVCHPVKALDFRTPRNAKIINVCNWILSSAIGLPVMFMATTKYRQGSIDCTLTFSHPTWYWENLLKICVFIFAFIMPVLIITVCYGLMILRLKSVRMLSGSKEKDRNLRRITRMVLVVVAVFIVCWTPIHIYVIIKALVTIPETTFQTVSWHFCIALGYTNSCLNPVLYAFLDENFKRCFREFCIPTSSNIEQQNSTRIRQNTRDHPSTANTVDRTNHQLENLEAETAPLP
Procedure: Bias factors were calculated using the operational model equation in Prism 8 to calculate Log R (τ/KA) (Table S2) as previously described [12]. […] A bias factor > 1 meant that the agonist was more G protein-biased than the reference compound; A bias factor < 1 meant that the agonist was less G protein-biased than the reference compound.

µOR [2] = biological target: T1, µOR; experiment: cell-based; format: cell-based
Procedure: (§2) In brief, for cAMP inhibition assays HEK 293 (Life Technologies, Grand Island, NY, USA) cells were transiently transfected in a 1:3 ratio with FLAG-mouse δOR, or HA-mouse µOR and pGloSensor22F-cAMP plasmids (Promega, Madison, WI, USA) using Xtremegene9 (Sigma). Two days post-transfection cells (20,000 cells/well, 7.5 µL) were seeded in low volume Greiner 384-well plates (#82051-458, VWR, Batavia, IL, USA) and were incubated with Glosensor reagent (Promega, 7.5 µL, 2% final concentration) for 90 min at room temperature. […] For β-arrestin recruitment assays, CHO-human µOR PathHunter β-arrestin 2 cells or CHO-human δOR PathHunter β-arrestin 2 cells (DiscoverX, Fremont, CA, USA) were plated (2,500 cells/well, 10 µL) one day prior to stimulation with 2.5 µL drug solution for 90 min at 37 °C/5% CO2, after which cells were incubated with 6 µL cell PathHunter assay buffer (DiscoverX) for 60 min at room temperature as per the manufacturer’s protocol. Luminescence for each of these assays was measured using a FlexStation3 plate reader (Molecular Devices, Sunnyvale, CA, USA).
(§3) All data are presented as means ± standard error of the mean, and analysis was performed using GraphPad Prism 8 software (GraphPad Software, La Jolla, CA). For in vitro assays, nonlinear regression was conducted to determine pIC50 (cAMP) or pEC50 (β-arrestin 2 recruitment). […] The averages of each independent run were counted as a single experiment and combined to provide a composite curve in favor of providing a ‘representative’ curve. In each experimental run, a positive control/reference compound was utilized to allow the data to be normalized and to calculate the log bias value. A minimum of three independent values were obtained for each compound in each of the cellular assays.

Rat plasma stability = details: for Degradation Products (First Appearance): rat plasma, UPLC-mass spectrometry, time of first appearance in parentheses; for half-life: rat, plasma
Procedure: Peptides were synthesized using an Aapptec Focus XC automated peptide synthesizer coupled with a heating system using a solid phase peptide synthesis protocol using Fmoc chemistry. Preparative RP-HPLC was performed using an appropriate column and solvent system (described below) and final purity of peptides was determined by UV area % from UPLC analysis. Peptides were purified by Teledyne ISCO EZ Prep system on RediSep® C18 Prep column (30 × 250 mm, 100 Å). […] Plasma stability was also assessed using the above UPLC column and solvent gradient program using a Waters H class Plus Acquity UPLC system coupled with a QDa detector using protocol B.
Sprague Dawley rat plasma containing K2-ethylenediaminetetraacetic acid (Innovative Research, MI, USA) was transferred into 300 µL aliquots and stored at −20 °C until use. […] After adding analog, an aliquot of the mixture was removed at each indicated time point (0, 5, 10, 15, 20, 30, 60, 120, 240 min) and immediately quenched with 100 μL of a methanol solution containing 20 μM Fmoc-Leu-OH as an internal standard. […] Then, the filtrate was transferred into vials and a 5 μL sample of the resulting solution was analyzed on an UPLC system coupled with a QDa detector. […] Determination of half-life (t1/2) was carried out by using the GraphPad Prism one-phase decay method.

FLAG-mouse δOR = biological target: T2, FLAG-mouse δOR (Mus musculus, UniProt P32300); experiment: cAMP GloSensor inhibition assay in HEK 293 cells; format: cell-based; details: for IC50: HEK 293, forskolin 30 µM, read-out: cAMP IC50 (nM) δOR; for LogR (δOR) cAMP: operational model Log R (τ/KA); for cAMP δOR Efficacy (%+SD): relative to Leu-enkephalin = 100; for G Protein Selectivity (δOR vs µOR): cAMP potency δOR vs µOR
T2 construct: FLAG; expressed in transfected cells; host or cells: HEK 293
T2 sequence (P32300 whole entry): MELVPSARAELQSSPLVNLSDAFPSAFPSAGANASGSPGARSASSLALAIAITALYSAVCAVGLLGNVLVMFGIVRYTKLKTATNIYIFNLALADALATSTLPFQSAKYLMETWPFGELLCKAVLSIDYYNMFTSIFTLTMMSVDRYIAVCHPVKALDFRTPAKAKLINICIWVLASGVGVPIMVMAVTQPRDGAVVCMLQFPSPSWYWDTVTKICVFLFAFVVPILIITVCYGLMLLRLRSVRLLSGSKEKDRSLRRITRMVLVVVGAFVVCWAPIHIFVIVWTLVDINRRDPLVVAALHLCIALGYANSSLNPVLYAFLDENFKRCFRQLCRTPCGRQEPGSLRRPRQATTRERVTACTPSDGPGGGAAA
Procedure: as §2, §3

HA-mouse µOR = biological target: T3, HA-mouse µOR (Mus musculus, UniProt P42866); experiment: cAMP GloSensor inhibition assay in HEK 293 cells; format: cell-based; details: for IC50: HEK 293, forskolin 30 µM, read-out: cAMP IC50 (nM) µOR; for LogR (µOR) cAMP: operational model Log R (τ/KA); for cAMP µOR Efficacy (%+SD): relative to DAMGO = 100
T3 construct: HA; expressed in transfected cells; host or cells: HEK 293
T3 sequence (P42866 whole entry): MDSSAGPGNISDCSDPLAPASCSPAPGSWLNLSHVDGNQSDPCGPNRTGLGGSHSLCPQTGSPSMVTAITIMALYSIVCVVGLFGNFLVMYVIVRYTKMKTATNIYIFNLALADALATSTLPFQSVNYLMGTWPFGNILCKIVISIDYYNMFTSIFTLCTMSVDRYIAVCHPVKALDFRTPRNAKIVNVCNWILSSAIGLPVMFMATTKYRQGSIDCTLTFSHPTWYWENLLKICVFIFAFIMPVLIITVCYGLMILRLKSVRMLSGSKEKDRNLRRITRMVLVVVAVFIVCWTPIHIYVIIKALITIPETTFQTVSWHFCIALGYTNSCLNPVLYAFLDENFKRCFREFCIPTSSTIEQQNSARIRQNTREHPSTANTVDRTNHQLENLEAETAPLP
Procedure: as §2, §3

µOR [3] = biological target: T1, µOR; experiment: Competition radioligand binding, [3H]DAMGO
Procedure: (§1) Next, 100 µL of membrane suspension containing 7 µg protein was added to the agonist wells and incubated for 90 min at room temperature. The reaction mixture was then filtered over a GF-B filter plate (Perkin Elmer) followed by four quick washes with ice-cold 50 mM Tris HCl. The plate was dried overnight, after which 50 µL scintillation fluid (Ultimagold uLLT) was added and radioactivity was counted on a Packard TopCount NXT scintillation counter. All working solutions were prepared in a radioligand assay buffer containing 50 mM Tris HCl, 10 mM MgCl2, and 1 mM ethylenediaminetetraacetic acid at pH 7.4.

δOR [4] = biological target: T4, δOR (Homo sapiens, UniProt P41143); experiment: Competition radioligand binding, [3H]DPDPE; details: for Binding Selectivity (δOR vs µOR): ratio of Ki values
T4 sequence (P41143 whole entry): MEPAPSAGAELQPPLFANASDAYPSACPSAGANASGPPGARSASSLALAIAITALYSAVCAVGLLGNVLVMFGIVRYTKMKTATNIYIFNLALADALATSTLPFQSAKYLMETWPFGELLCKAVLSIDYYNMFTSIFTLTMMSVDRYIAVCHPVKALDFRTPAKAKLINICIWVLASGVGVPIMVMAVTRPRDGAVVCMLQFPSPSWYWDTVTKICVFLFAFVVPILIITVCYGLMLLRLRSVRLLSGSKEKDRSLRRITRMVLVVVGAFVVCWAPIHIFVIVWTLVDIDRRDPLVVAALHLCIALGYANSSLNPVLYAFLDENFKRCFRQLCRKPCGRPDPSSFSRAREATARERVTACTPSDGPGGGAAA
Procedure: as §1

δOR [5] = biological target: T4, δOR; experiment: PathHunter β-arrestin 2 recruitment assay in CHO cells
Procedure: as §2, §3

[6] = CHO PathHunter, read-out: β-Arrestin 2 EC50 (nM) µOR

Compound	Bias Factor µOR (DG = Ref) (µOR [1])	EC50 (µOR [2])	LogR (µOR) β-arr2 (µOR [2])	β-Arrestin 2 µOR Efficacy (% + SEM) (µOR [2])	Degradation Products (First Appearance) (Rat plasma stability)	half-life (Rat plasma stability)	IC50 (FLAG-mouse δOR)	LogR (δOR) cAMP (FLAG-mouse δOR)	cAMP δOR Efficacy (%+SD) (FLAG-mouse δOR)	IC50 (HA-mouse µOR)	LogR (µOR) cAMP (HA-mouse µOR)	cAMP µOR Efficacy (%+SD) (HA-mouse µOR)	Ki (µOR [3])	also measured
CC(C)C[C@H](NC(=O)[C@H](Cc1cccc(C(F)(F)F)c1)NC(=O)CNC(=O)CNC(=O)[C@@H](N)Cc1ccc(O)cc1)C(=O)O [Compound 1g]	4.3	56.2 nM	6.6	71 ± 3%	Gly-Gly-(meta-CF3)Phe-Leu (5 min) (meta- CF3)Phe-Leu (30 min)	44.5 min	0.11 nM	9.7	92 ± 8%	2.45 nM	8.1	90 ± 4%		
CC(C)C[C@H](NC(=O)[C@H](Cc1cccc(C#N)c1)NC(=O)CNC(=O)CNC(=O)[C@@H](N)Cc1ccc(O)cc1)C(=O)O [Compound 1h]	5.4	158 nM	5.9	68 ± 4%	Gly-Gly-(meta-CN)Phe-Leu (5 min) (meta-CN)Phe-Leu (20 min)	33 min	0.35 nM	9.3	100 ± 3%	12 nM	7.5	92 ± 13%	0.3 nM	
CC(C)C[C@H](NC(=O)[C@H](Cc1cccc([N+](=O)[O-])c1)NC(=O)CNC(=O)CNC(=O)[C@@H](N)Cc1ccc(O)cc1)C(=O)O [Compound 1i]		537 nM	5.3	60 ± 6%	Gly-Gly-(meta-NO2)Phe-Leu (5 min) (meta- NO2)Phe-Leu (20 min)	28.8 min	0.47 nM	9.0	99 ± 6%	49 nM	7.2		0.98 nM	Bias Factor µOR (DG = Ref) (µOR [1]; listed as 1i (NO2)): 11.1
CC(C)C[C@H](NC(=O)[C@H](Cc1ccccn1)NC(=O)CNC(=O)CNC(=O)[C@@H](N)Cc1ccc(O)cc1)C(=O)O [Compound 1j] (H-YGG[2Pal]L-OH; N-terminus and C-terminus assumed)					(2-pyridyl)Ala-Leu (5 min) Gly-Gly-(2-pyridyl)Ala-Leu (30 min)	26.8 min	4.57 nM			40.7 nM			9.12 nM	EC50 (µOR [2]; [6]): 1350 nM; Ki (δOR [4]): 6.17 nM; Binding Selectivity (δOR vs µOR) (δOR [4]): 1.5; G Protein Selectivity (δOR vs µOR) (FLAG-mouse δOR): 8.9; EC50 (δOR [5]): 100 nM
CC(C)C[C@H](NC(=O)[C@H](Cc1cccnc1)NC(=O)CNC(=O)CNC(=O)[C@@H](N)Cc1ccc(O)cc1)C(=O)O [Compound 1k] (H-YGG[3Pal]L-OH; N-terminus and C-terminus assumed)					(3-pyridyl)Ala-Leu (10 min) Gly-Gly-(3-pyridyl)Ala-Leu (20 min)	54 min	47.9 nM			234 nM			158 nM	EC50 (µOR [2]; [6]): 41700 nM; Ki (δOR [4]): 33.1 nM; Binding Selectivity (δOR vs µOR) (δOR [4]): 4.8; G Protein Selectivity (δOR vs µOR) (FLAG-mouse δOR): 4.9; EC50 (δOR [5]): 1120 nM
C[C@@H](NC(=O)[C@@H](N)Cc1ccc(O)cc1)C(=O)NCC(=O)N(C)[C@@H](Cc1ccccc1)C(=O)NCCO [DAMGO, (D-Ala^2, N-MePhe^4, Gly-ol) enkephalin, reference compound]	1										7.8	100%		β-Arrestin 2 µOR Efficacy (% + SEM) (µOR [2]; relative to DAMGO = 100%): 100%
CC(C)C[C@H](NC(=O)[C@H](Cc1ccccc1)NC(=O)CNC(=O)CNC(=O)[C@@H](N)Cc1ccc(O)cc1)C(=O)O [Leu^5-enkephalin, Tyr^1-Gly^2-Gly^3-Phe^4-Leu^5, reference compound]					Gly-Gly-Phe-Leu (5 min) Phe-Leu (10 min)				100%			100%		cAMP µOR Efficacy (%+SD) (HA-mouse µOR; listed as Leu-enkephalin): 100 ± 9%
